How the values were obtained:
[1] = pH cycling study: remineralization of artificial lesions (SMH, EFU); design: species or system Bovine; details: five days, calcium compounds used together with 100 ppm F treatments
Description: A pH cycling study was performed. The study was developed to simulate the spike in acid production after three meals during the course of a day.
Bovine enamel specimens were polished and artificial lesions formed by immersion of the specimens in a lesion forming solution consisting of 0.1 M lactic acid and 0.2% Carbopol C907 which was 50% saturated with hydroxyapatite and adjusted to pH 5.0. The average specimen surface microhardness (SMH) was determined from four indentations on the surface of each specimen, using a Vickers hardness indenter at a load of 200 g for 15 seconds. […] Specimens were divided into subgroups of 18 specimens balanced by post-demineralization surface microhardness (SMH) values.
Remineralization efficacy was evaluated under two different cyclic treatment regimens. Both regimens consisted of three one-minute fluoride treatment periods (100 ppm, pH=6.5), and three one-hour acid challenges in the lesion forming solution, with calcium introduced during the acid challenges.
The difference between the two treatment regimens was the relative order of the fluoride treatments and the acid challenges. In Regimen I, shown in Table 1, the demineralization event (Demin: Lactic Acid Challenge) occurred first, followed by the remineralization event (Remin: Artificial Saliva Soak). In Regimen II, shown in Table 2, the order of events was reversed, and the remineralization event occurred first, followed by the demineralization event.
During the acid challenge periods (Demin: Lactic Acid Challenge), a 15 ml aliquot of the lesion forming solution was transferred to a treatment beaker containing six enamel specimens. Calcium compounds at equimolar calcium concentration, were introduced to the solution 20 minutes after the start of the acid challenge.
The pH cycling regimens were repeated for five consecutive days. […] As a negative control, the calcium sources, as well as the fluoride source, were replaced with water. Also, for comparison purposes, a study was performed with only the fluoride source.
After five days of treatment and pH cycling, remineralization efficacy was measured from change in surface microhardness (SMH) and enamel fluoride uptake (EFU). The surface microhardness was measured as described above, where the indentations were measured next to the baseline indentations. The fluoride content was determined by micro-drilling to a depth of 100 micron into each tooth. The enamel powder from the drill hole was collected, dissolved (20 microliter of HClO4, 40 microliter Citrate/EDTA Buffer and 40 microliter deionized (DI) water) and analyzed for fluoride by comparison to a similarly prepared standard curve.

[2] = pH study: change in pH of lesion forming solution after addition of calcium compounds; format: physicochemical; details: 8 mM Ca added to lesion forming solution (pH 5.0), stirred 30 minutes at 37 degrees C.
Description: Powders were added and allowed to stir for 30 minutes at 37 degrees C. before measuring the pH.

O=P([O-])([O-])[O-].O=P([O-])([O-])[O-].[Ca+2].[Ca+2].[Ca+2] [Alpha-Tricalcium Phosphate]
EFU, comparison between treatment groups (in words) ([1]; Regimen I): comparable to the EFU of the highly soluble calcium compound (Calcium Chloride Dihydrate) treated specimens
SMH, comparison between treatment groups (in words) ([1]; Regimen I): comparable to the SMH of the highly soluble calcium compound (Calcium Chloride Dihydrate) treated specimens
EFU, comparison between treatment groups (in words) ([1]; Regimen II): equivalent to the EFU of the specimens only treated with 100 ppm F
SMH, comparison between treatment groups (in words) ([1]; Regimen II): comparable to the SMH of the specimens only treated with 100 ppm F
ΔpH [2]: +0.33

O.O.[Ca+2].[Cl-].[Cl-] [Calcium Chloride Dihydrate, reference compound]
EFU, comparison between treatment groups (in words) ([1]; Regimen II): highest values of EFU
SMH, comparison between treatment groups (in words) ([1]; Regimen II): highest values of SMH

Source: patent US11857653B2
